Test results reported in patent US10961202B2, “Bis-benzimidazole compounds and methods of using the same” (THE SCRIPPS RESEARCH INSTITUTE, priority 2017, dated 2021).
Read-outs that look alike come from different tables or passages of the source.

What was measured:
[1] = system: HSALR strain 20b mice; assay: DM1 mouse efficacy study: RT-PCR of MBNL1-dependent splicing targets in gastrocnemius; type: in vivo; settings: sc, 3 mg/kg qod 5 doses, subcutaneous
Source text: HSALR strain 20b mice were used as a model for myotonic dystrophy type I (DM1) experimental studies when testing the efficacy of candidate compounds. To determine the genotype of the mice, the transgene of human skeletal actin (HSA) genomic level was compared to endogenous mouse skeletal actin (MSA) by PCR. Mice with an HSA:MSA ratio of 2:1, homozygous mice were used for the study. Disease phenotype was confirmed in homozygous HSALR by assessing myotonia by pinching the quadriceps of the mouse. […] Homozygous HSALR that have been confirmed by PCR genotyping HSA:MSA ratio and are positive for pinch myotonia were selected for candidate compound efficacy studies for DM1.
For each study, a control group of PBS injected mice was included along with mice test groups injected with the compound to be tested. For a statistical power >80%, five mice were used per group (three females and two males). As previously indicated, homozygous HSALR mice were selected aged 8-12 weeks at the beginning of the study. Littermate mice were evenly distributed across groups in the study. Each cage contained mice from a single group. Female mice from different litters were combined into one cage for a single test group. Male mice cannot be combined in cages with non-littermate mice. If any fighting occurred in cages with multiple mice, the mice with minor/superficial fight wounds were be separated and monitored. Mice with severe fight wounds were removed from the study. Mice were monitored throughout the study for weight changes over time, behavioral changes at time of injection, and any other potential health concerns that arose during the study.
Mice were injected with approximately ˜200 μL solution subcutaneously by 28-gauge syringe. The volume administered was determined by the weight of the mouse where 10 iaL solution is administered per 1 g of the weight of the mouse. The compound was solubilized in DPBS at a concentration of […], which equated to a dose of 0.1-3.0 mg compound per kg weight of the animal (mpk). Mice were weighed once a week, and the volume of administered compound solution (or DPBS) was adjusted accordingly for correct mpk dosing. Once a compound was tested for acute toxicity in FVB wildtype mice, the compound was typically first tested at 3 mpk, injected every other day (q.o.d.) for five doses, and the mice sacrificed 24 hr after the last injection. Candidate compounds were further tested at different dose regimes to further assess the compound's efficacy in DM1 mice.
For each mouse, blood, brain, heart, liver, kidney, tibialis anterior, gastrocnemius, and quadriceps were dissected and collected. After the mouse was euthanized, blood was collected by cardiac puncture and placed in lithium heparin tubes on ice. Plasma was separated by centrifugation and collected. Brain, heart, half of the liver, tibialis anterior, gastrocnemius, and quadriceps were flash frozen in liquid nitrogen. Half of the liver, kidneys, and subset of heart samples were fixed in 10% formalin. One of the two tibialis anterior muscles was frozen with OCT for cyro-sectioning.
Gastrocnemius muscle was used for downstream RNA extraction RT-PCR. […] Half of one gastrocnemius was used for an RNA extraction. The gastrocnemius was homogenized in Trizol reagent and extracted following the protocol of the Zymo Direct-zol RNA Mini Prep Plus kit.
For each RNA sample, 500 ng of RNA was used for a reverse transcription reaction to produce single-stranded cDNA. MBNL1-dependent splicing targets (Clcn1 exon 7a, Mbnl1 exon 5, Sercal exon 22, and Zasp exon 11) and MBNL1-independent splicing targets (Capzb exon 8, Itgb1 exon 17) were assessed by RT-PCR. For the alternative exons listed, forward and reverse primers were designed to amplify the alternative exon along with the flanking constitutive exons such that one primer may produce two PCR products: one PCR product including the alternative exon and one PCR product excluding the alternative exon. […]

[2] = system: HSALR strain 20b mice; assay: as above; type: in vivo; settings: sc, 7.5 mg/kg qod 5 doses, subcutaneous
[3] = system: MBNL1 exon 5 inclusion in DM1 myotubes; assay: Myotube splicing rescue assay (MBNL1 exon 5 inclusion); type: cell-based, human; settings: 48-hour incubation
[4] = system: r(CUG)12-MBNL1 complex; assay: Inhibition of the r(CUG)12-MBNL1 complex measured by TR-FRET; type: biochemical; settings: Table M; 80 nM RNA, 60 nM MBNL1-His6
[5] = read-out: Clcn1 exon 7a splicing rescue %
[6] = read-out: Mbnl1 exon 5 splicing rescue %
[7] = read-out: Serca1 exon 22 splicing rescue %
[8] = read-out: Zasp exon 11 splicing rescue %

Row | IC50 [4] | SMILES | percent splicing rescue at 3 mg/kg [1, 5] | percent splicing rescue at 3 mg/kg [1, 6] | percent splicing rescue at 3 mg/kg [1, 7] | percent splicing rescue at 3 mg/kg [1, 8] | percent splicing rescue at 7.5 mg/kg [2, 5] | percent splicing rescue at 7.5 mg/kg [2, 6] | percent splicing rescue at 7.5 mg/kg [2, 7] | percent splicing rescue at 7.5 mg/kg [2, 8] | MBNL1 % splicing rescue at 10 μM [3] | MBNL1 % splicing rescue at 1 μM [3]
1 | 9.67 µM | CN1CCC(COc2ccc3nc(-c4ccc(-c5nc6ccc(OCC7CCN(C)CC7)cc6[nH]5)cc4)[nH]c3c2)CC1 [Compound 198, 1,4-bis(6-((1-methylpiperidin-4-yl)methoxy)-1H-benzo[d]imidazol-2-yl)benzene] | 55.1% | 49.7% | 22.3% | 35% | 90.4% | 94.5% | 61.2% | 91.5% | 109.8% | 
2 | 25.2 µM | c1cc2nc(-c3ccc(-c4nc5ccc(OCCCN6CCCCC6)cc5[nH]4)cc3)[nH]c2cc1OCCCN1CCCCC1 [Compound 214] | -31.6% | -17.3% | -5.1% | -12.1% |  |  |  |  | 119.3% | 
3 | 12 µM | CN(C)CCCOc1ccc2nc(-c3cnc(-c4nc5ccc(OCCCN(C)C)cc5[nH]4)cn3)[nH]c2c1 [Compound 274] | 31.6% | 25.2% | 10.7% | 29.8% |  |  |  |  | 65.3% | 
4 | 8.29 µM | CN(C)CCCOc1cc2[nH]c(-c3ccc(-c4nc5cc(F)c(OCCCN(C)C)cc5[nH]4)cc3)nc2cc1F [Compound 277, (3-[[2-(4-[6-[3-(dimethylamino)propoxy]-5-fluoro-1H-1,3-benzodiazol-2-yl]phenyl)-5-fluoro-1H-1,3-benzodiazol-6-yl]oxy]propyl)dimethylamine; 2-hydroxypropane-1,2,3-tricarboxylic acid] | 30.3% | 19.9% | 13.2% | 24.2% |  |  |  |  | 51.0% | 
5 | 14.2 µM | CN(C)CCCOc1ccc2nc(-c3ccc(-c4nc5ccc(OCCCN(C)C)cc5[nH]4)c(F)c3)[nH]c2c1 [Compound 286, (3-[[2-(4-[6-[3-(dimethylamino)propoxy]-1H-1,3-benzodiazol-2-yl]-3-fluorophenyl)-1H-1,3-benzodiazol-6-yl]oxy]propyl)dimethylamine] | 65.8% | 70.4% | 40.4% | 60% |  |  |  |  | 96.4% | 
6 | 6.45 µM | CN(C)CCCOc1ccc(-c2nc3cc(-c4ccc5[nH]c(-c6ccc(C(=O)NCCN(C)C)cc6)nc5c4)ccc3[nH]2)cc1 [Compound 346] |  |  |  |  | 105% | 11.8% | 22.3% |  | 74.8% | 79.9%
7 | 16.5 µM | CN(C)CCOc1cccc(-c2nc3cc(-c4ccc5[nH]c(-c6cccc(OCCN(C)C)c6)nc5c4)ccc3[nH]2)c1 [Compound 354] | -14% | -0.1% | 0.1% | -0.1% |  |  |  |  | 64.2% | 66.0%
